Measurements published in patent publication EP0463456A1, “Phosphorus-containing HMG-CoA reductase inhibitors, new intermediates and their use” (E.R. SQUIBB & SONS, INC., priority 1990, dated 1992).

Biological target: T1, Rat hepatic HMG-CoA reductase (Rattus norvegicus, UniProt P51639)
T1 construct: Livers are removed from 2-4 cholestyramine-fed, decapitated, Sprague Dawley rats, and homogenized in phosphate buffer A; from tissue; host or cells: liver microsomes of cholestyramine-fed Sprague Dawley rats
T1 sequence (P51639 1-887): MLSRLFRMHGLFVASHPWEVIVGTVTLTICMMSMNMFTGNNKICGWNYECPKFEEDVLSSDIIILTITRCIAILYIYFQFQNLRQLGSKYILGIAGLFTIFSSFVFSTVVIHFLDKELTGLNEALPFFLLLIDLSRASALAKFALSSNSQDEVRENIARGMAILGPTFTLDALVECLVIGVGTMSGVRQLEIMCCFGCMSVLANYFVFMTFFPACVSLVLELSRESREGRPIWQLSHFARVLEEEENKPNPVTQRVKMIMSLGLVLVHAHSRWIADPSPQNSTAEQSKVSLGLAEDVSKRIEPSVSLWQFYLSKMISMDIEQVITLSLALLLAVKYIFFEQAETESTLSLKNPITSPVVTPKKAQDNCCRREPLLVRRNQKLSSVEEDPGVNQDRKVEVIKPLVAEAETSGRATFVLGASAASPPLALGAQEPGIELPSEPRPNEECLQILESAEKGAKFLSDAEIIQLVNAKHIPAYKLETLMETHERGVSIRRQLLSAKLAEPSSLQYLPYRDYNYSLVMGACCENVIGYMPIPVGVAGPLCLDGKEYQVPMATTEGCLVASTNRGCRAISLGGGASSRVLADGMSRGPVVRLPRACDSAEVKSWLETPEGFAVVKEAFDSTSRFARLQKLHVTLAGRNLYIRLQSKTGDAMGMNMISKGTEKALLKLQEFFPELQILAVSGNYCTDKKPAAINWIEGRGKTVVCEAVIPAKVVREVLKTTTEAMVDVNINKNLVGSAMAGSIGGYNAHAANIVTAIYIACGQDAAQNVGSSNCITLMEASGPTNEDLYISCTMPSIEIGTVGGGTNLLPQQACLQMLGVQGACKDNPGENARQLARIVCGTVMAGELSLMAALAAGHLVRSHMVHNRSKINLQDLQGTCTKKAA
Test: Rat Hepatic HMG-CoA Reductase test (conversion of 14C-HMG-CoA to 14C-mevalonic acid by rat hepatic microsomes)
Format: biochemical
Conditions: concentration producing 50% inhibition of enzyme activity, 100 µM HMG-CoA, 20 minutes at 37° C, read-out: Reductase 150
Protocol: 1) Rat Hepatic HMG-CoA Reductase
Rat hepatic HMG-CoA reductase activity is measured using a modification of the method described by Edwards (Edwards, P.A., et al., J. Lipid Res. 20:40, 1979). Rat hepatic microsomes are used as a source of enzyme, and the enzyme activity is determined by measuring the conversion of the ^14C-HMG-CoA substrate to 14C-mevalonic acid.
a. Preparation of Microsomes
Livers are removed from 2-4 cholestyramine-fed, decapitated, Sprague Dawley rats, and homogenized in phosphate buffer A (potassium phosphate, 0.04 M, pH 7.2; KCI, 0.05 M; sucrose, 0.1 M; EDTA, 0.03 M; aprotinin, 500 KI units/ml). The homogenate is spun at 16,000 x g for 15 minutes at 4°C. The supernatant is removed and recentrifuged under the same conditions a second time. The second 16,000 x g supernatant is spun at 100,000 x g for 70 minutes at 4° C. Pelleted microsomes are resuspended in a minimum volume of buffer A (3-5 ml per liver), and homogenized in a glass/glass homogenizer. […]
Standardized assays for the evaluation of inhibitors are conducted according to the following procedure. […] The first 0.5 ml is discarded, and the next 1.5 ml is collected and counted for both tritium and carbon 14 in 10.0 ml Opti-fluor scintillation fluid. Results are calculated as nmoles mevalonic acid produced per 20 minutes, and are corrected to 100% recovery of tritium. […]

IC50: 0.6 nM
Substance: (S)-4-[[[4-(4-Fluorophenyl)-1,2-bis(1-methylethyl)-5-phenyl-1H-pyrrol-3-yl]-ethynyl]hydroxyphosphinyl]-3-hydroxybutanoic acid, dilithium salt [SQ 34,346]
